Measured values published in patent publication US5932545A, “Antiangiogenic drug to treat cancer, arthritis and retinopathy” (Abbott Laboratories, priority 1998, dated 1999).
Square brackets hold non-standard residues; d marks the D form. Ends that are not written are not given here. Peptide text beside a SMILES is read from it.

What was measured:
[1] = test system: bovine capillary (adrenal) endothelial cells (BCE); assay: endothelial cell migration assay (modified Boyden chamber); assay type: cell-based; conditions: 4 hours at 37° C., read-out: IC50, effect on endothelial cell migration
Method: The effect of the peptides of the invention on endothelial cell migration was determined in vitro using the endothelial cell migration assay. This assay was performed essentially as described by Polverini, P. J. et al., Methods Enzymol, 198: 440-450 (1991). Briefly, bovine capillary (adrenal) endothelial cells (BCE, supplied by Judah Folkman, Harvard University Medical School) were starved overnight in DMEM containing 0.1% bovine serum albumin (BSA). Cells were then harvested with trypsin and resuspended in DMEM with 0.1% BSA at a concentration of 1.5×10^6cells/mL. Cells were added to the bottom of a 48-well modified Boyden chamber (Nucleopore Corporation, Cabin John, Md.). The chamber was assembled and inverted, and cells were allowed to attach for 2 hours at 37° C. to polycarbonate chemotaxis membranes (5 μm pore size) that had been soaked in 0.1 % gelatin overnight and dried. The chamber was then reinverted and test compounds were added to the wells of the upper chamber (to a total volume of 50 μL); the apparatus was then incubated for 4 hours at 37° C. Membranes were recovered, fixed and stained (DiffQuick, Fisher Scientific, Pittsburgh, Pa.) and the number of cells that had migrated to the upper chamber per 10 high power fields were counted. Background migration to DMEM+0.1% BSA was subtracted and the data reported as the number of cells migrated per 10 high power fields (400×) or when results from multiple experiments were combined, as the percent of maximal migration compared to a simultaneous positive control.

[2] = test system: cultured endothelial cells; conditions: background, Tolsma et al. 1993; cited from earlier work
[3] = test system: rat cornea neovascularization; conditions: background, Tolsma et al. 1993; cited from earlier work
[4] = test system: rat corneal neovascularization; assay: rat corneal neovascularization assay (hydron pellets, peptide alone or with bFGF); assay type: in vivo; conditions: 7 days
Method: Inhibition of angiogenesis in vivo was measured using a rat corneal neovascularization assay. Accordingly, 6% hydron pellets containing peptide alone or in combination with 0.15 μM bFGF were implanted in rat corneas 1-1.5 mm from the limbus. at 7 days, the rats were sacrificed, perfused with colloidal carbon to visualize vessels and the corneas were extracted. Vigorous vessel ingrowth was scored as a positive angiogenic response. Induction control indicates response to 0.15 μM bFGF alone.

Compound `CCNC(=O)[C@H](CCCNC(=N)N)NC(=O)[C@@H](NC(=O)[C@H](CCCNC(=N)N)NC(=O)[C@@H](NC(=O)[C@H](NC(=O)[C@@H](NC(=O)CNC(=O)[C@H](Cc1ccc(O)cc1)NC(C)=O)C(C)C)[C@H](C)CC)[C@@H](C)O)[C@@H](C)CC` [Ac-Tyr-Gly-Val-D-Ile-Thr-Arg-Ile-Arg-NHCH2 CH3] (Ac-YGV[dI]TRIR-NHEt) has an IC50 [1] of 50 nM.

For “SPWSSASVTAGDGVITRIR [MalII, 19-mer synthetic peptide mimicking properdin-like repeat region 1 of TSP1]”, the “ED50, inhibition of the migration of cultured endothelial cells” value [2] is given as “about 1 μM” and the “neovascularization in vivo in the rat cornea” value [3] is given as “blocked neovascularization in vivo in the rat cornea”.

Compound `CC[C@@H](C)[C@@H](NC(=O)[C@@H](NC(=O)CNC(=O)[C@H](CC(=O)O)NC(=O)CNC(=O)[C@H](C)NC(=O)[C@@H](NC(=O)[C@@H](NC(=O)[C@H](CO)NC(=O)[C@H](C)NC(=O)[C@H](CO)NC(=O)[C@H](CO)NC(=O)[C@H](Cc1c[nH]c2ccccc12)NC(=O)[C@@H]1CCCN1C(=O)[C@@H](N)CO)C(C)C)[C@@H](C)O)C(C)C)C(=O)N[C@H](C(=O)N[C@@H](CCCNC(=N)N)C(=O)N[C@H](C(=O)N[C@@H](CCCNC(=N)N)C(=O)O)[C@@H](C)CC)[C@@H](C)O` [Ser-Pro-Trp-Ser-Ser-Ala-Ser-Val-Thr-Ala-Gly-Asp-Gly-Val-D-Ile-Thr-Arg-Ile-Arg] (H-SPWSSASVTAGDGV[dI]TRIR-OH) has an IC50 [1] of 10 nM.

`CC[C@H](C)[C@H](NC(=O)[C@H](CCCNC(=N)N)NC(=O)[C@@H](NC(=O)[C@@H](NC(=O)[C@@H](NC(=O)CNC(=O)[C@H](CC(=O)O)NC(=O)CNC(=O)[C@H](C)NC(=O)[C@@H](NC(=O)[C@@H](NC(=O)[C@H](CO)NC(=O)[C@H](C)NC(=O)[C@@H](CO)NC(=O)[C@H](CO)NC(=O)[C@H](Cc1c[nH]c2ccccc12)NC(=O)[C@@H]1CCCN1C(=O)[C@@H](N)CO)C(C)C)[C@@H](C)O)C(C)C)[C@@H](C)CC)[C@@H](C)O)C(=O)N[C@@H](CCCNC(=N)N)C(=O)O` [Ser-Pro-Trp-Ser-D-Ser-Ala-Ser-Val-Thr-Ala-Gly-Asp-Gly-Val-Ile-Thr-Arg-Ile-Arg] (H-SPWS[dS]ASVTAGDGVITRIR-OH) showed an IC50 [1] of 0.9 nM.

For `CC[C@@H](C)[C@@H](NC(=O)[C@@H](NC(=O)CNC(C)=O)C(C)C)C(=O)N[C@H](C(=O)N[C@@H](CCCNC(=N)N)C(=O)N[C@H](C(=O)N[C@@H](CCCNC(=N)N)C(N)=O)[C@@H](C)CC)[C@@H](C)O` [Ac-Gly-Val-D-Ile-Thr-Arg-Ile-Arg-NH2] (Ac-GV[dI]TRIR-NH2), the IC50 [1] was 7 nM, the “Positive Corneas/Total Implanted, Tested + bFGF” value ([4]; 0.1 μM peptide + 0.15 μM bFGF) was 1/3 and the “Positive Corneas/Total Implanted, Tested Alone” value ([4]; 0.1 μM peptide alone) was 0/3. For the same compound, the “Positive Corneas/Total Implanted, Tested + bFGF” value ([4]; 1 μM peptide + 0.15 μM bFGF) was 0/2, the “Positive Corneas/Total Implanted, Tested Alone” value ([4]; 1 μM peptide alone) was 0/1 and the “Positive Corneas/Total Implanted, Tested + bFGF” value ([4]; 20 μM peptide + 0.15 μM bFGF) was 0/2. For the same compound, the “Positive Corneas/Total Implanted, Tested Alone” value ([4]; 20 μM peptide alone) was 0/4.

With `CC[C@@H](C)[C@@H](NC(=O)[C@@H](NC(=O)CNC(=O)[C@H](CC(=O)O)NC(=O)CNC(=O)[C@H](C)NC(=O)[C@@H](NC(=O)[C@@H](NC(=O)[C@H](CO)NC(=O)[C@H](C)NC(=O)[C@H](CO)NC(=O)[C@@H](CO)NC(=O)[C@H](Cc1c[nH]c2ccccc12)NC(=O)[C@@H]1CCCN1C(=O)[C@@H](N)CO)C(C)C)[C@@H](C)O)C(C)C)C(=O)N[C@H](C(=O)N[C@@H](CCCNC(=N)N)C(=O)N[C@H](C(=O)N[C@@H](CCCNC(=N)N)C(=O)O)[C@@H](C)CC)[C@@H](C)O` [Ser-Pro-Trp-D-Ser-Ser-Ala-Ser-Val-Thr-Ala-Gly-Asp-Gly-Val-D-Ile-Thr-Arg-Ile-Arg] (H-SPW[dS]SASVTAGDGV[dI]TRIR-OH) the “Positive Corneas/Total Implanted, Tested + bFGF” value ([4]; peptide + 0.15 μM bFGF, peptide concentration not given) was 0/3 and the “Positive Corneas/Total Implanted, Tested Alone” value ([4]; peptide alone in hydron pellet, concentration not given) was 0/3.

`CCNC(=O)[C@H](CCCNC(=N)N)NC(=O)[C@@H](NC(=O)[C@H](CCCNC(=N)N)NC(=O)[C@@H](NC(=O)[C@H](NC(=O)[C@@H](NC(=O)CNC(C)=O)C(C)C)[C@H](C)CC)[C@@H](C)O)[C@@H](C)CC` [Ac-Gly-Val-D-Ile-Thr-Arg-Ile-Arg-NHEt, Ac-Gly-Val-D-Ile-Thr-Arg-Ile-Arg-NHCH2 CH3] (Ac-GV[dI]TRIR-NHEt) showed an IC50 [1] of 0.67 nM.

Compound `CC[C@@H](C)[C@@H](NC(=O)[C@@H](NC(=O)CNC(=O)[C@H](CC(=O)O)NC(=O)CNC(=O)[C@H](C)NC(=O)[C@@H](NC(=O)[C@@H](NC(=O)[C@H](CO)NC(=O)[C@H](C)NC(=O)[C@@H](CO)NC(=O)[C@H](CO)NC(=O)[C@H](Cc1c[nH]c2ccccc12)NC(=O)[C@@H]1CCCN1C(=O)[C@@H](N)CO)C(C)C)[C@@H](C)O)C(C)C)C(=O)N[C@H](C(=O)N[C@@H](CCCNC(=N)N)C(=O)N[C@H](C(=O)N[C@@H](CCCNC(=N)N)C(=O)O)[C@@H](C)CC)[C@@H](C)O` [Ser-Pro-Trp-Ser-D-Ser-Ala-Ser-Val-Thr-Ala-Gly-Asp-Gly-Val-D-Ile-Thr-Arg-Ile-Arg] (H-SPWS[dS]ASVTAGDGV[dI]TRIR-OH) has an IC50 [1] of 0.9 nM.
